Columns and labels:
[1] = Trial in calves: live weight, average daily gain, feed intake, feed conversion ratio (12 weeks); assay type: in vivo, Holstein Friesian calves
Description: (§1) Holstein Friesian calves (2- to 3-week-old, 95% male) were transported from different farms to the experimental facility of Denkavit (Voorthuizen, The Netherlands) where the animals were reared. The calves were randomly and gender-equally divided in four groups based on experimental calf milk replacer (CMR): group A (placebo—standard CMR powder of the farm), group B (standard CMR powder supplemented with 0.005% dry wt. 2′FL), group C (standard CMR powder supplemented with 0.025% dry wt. 3′SL and 0.015% w/w 6′SL) and group D (standard CMR powder supplemented with 0.005% dry wt. 2′FL, 0.025% dry wt. 3′SL and 0.015% dry wt. 6′SL). The calf milk replacer was administered as a liquid to the calves (water was added to the CMR powder to obtain 150 grams CMR powder per liter liquid CMR). Each group involved 100 calves, assigned into four rows (25 calves per row) of two compartment blocks. Each row contained five pens, where four to six calves were living in one pen.
Starting from the day of arrival, calves received standard calf milk replacer (CMR) during a period of 9 weeks. Group A only received the CMR, while the CMR supplied to groups B, C and D was supplemented with MMOs as outlined in the section titled “Animals.” Calf starter (concentrates) and straw were introduced gradually from day 6 till the end of the experiment (12 weeks) while calves had access to corn silage at week 11 and 12. Feeds were provided ad libitum to calves twice a day in the morning and evening and were daily recorded based on rows (concentrates, straw, corn silage) or groups (CMR) consumption.
Calves were followed up by the farm staff since arrival until 12 weeks. Fecal consistency in scale 1-4 (Larson et al., 1977, J. Dairy Science, 60(6): p. 989-991) was recorded daily for the first ten days since arrival. Number of mortalities and signs of adverse effects were registered daily. The animals were treated prophylactically or metaphylactically (herd treatment) with 1 g oxytetracycline 100% (at day 4), 0.5 g Doxylin 50% WSP and 0.8 g Bromhexine 2% (at day 13), and 3.1 ml Tilmicosol 250 mg/ml (at day 24) to prevent and/or treat acute lung inflammation. Individual treatments were followed by remarks of the farm staff and diagnostics of farm veterinary practitioners. Disease incidences and medicinal usage based on individual treatments were recorded to compare between treatment groups. The incidence of diarrhea was 0% in all groups at the start of the study, and 1% (%; group A), 0% (group B), 1% (group C) and 2% (group D) after 12 weeks. Live weight of the animals was monitored at arrival (d1), two weeks (W2), six weeks (W6), ten weeks (W10) and 12 weeks (W12) since arrival. Feed conversion ratio (FCR) of each period was computed based on the input of daily weight gain and daily feed intake.
Prior to analysis, the data of live weight and FCR were checked for outliers. A data point was considered an outlier if it could reasonably be expected that observed trail results were due to other factors than the treatment, e.g., due to sickness. An ANCOVA model as below was used to analyze the live weight data (R version 4.1.2.).
Differences among means with P<0.05 were accepted as significant. Differences among means with 0.05<P<0.10 were accepted as tendency. Multiple comparisons were done with Tukey.
Other performance data were analyzed using a mixed linear model using treatments as fixed and Row as random term using 1me in the nlme package.

[2] = Trial in calves: health and safety observation (adverse effects, mortality, diarrhea); assay type: in vivo, Holstein Friesian calves; conditions: after 12 weeks
Description: as §1, with “Each row contained five pens, where four to six calves were living in one pen.” left out
Calves were followed up by the farm staff since arrival until 12 weeks. Fecal consistency in scale 1-4 (Larson et al., 1977, J. Dairy Science, 60(6): p. 989-991) was recorded daily for the first ten days since arrival. […] Disease incidences and medicinal usage based on individual treatments were recorded to compare between treatment groups. […] Live weight of the animals was monitored at arrival (d1), two weeks (W2), six weeks (W6), ten weeks (W10) and 12 weeks (W12) since arrival. […]

Blautia obeum = assay: Fecal samples of piglets, 16S rRNA sequencing; assay type: in vivo
Protocol: (§2) On d22, from one piglet per pen (piglet with median weight at weaning) a fresh feces sample was collected and stored at −80° C. Total fecal DNA of 16 selected piglets (1 per pen) were extracted from 200 mg feces. ZymoBIOMICS™ DNA miniprep kit (Zymo Research) in combination with a FASTPREP® 24 device was used to extract and purify the microbial DNA as instructed by the manufacturer. Purified total DNA were eluted in 100 μl and were quickly checked for the concentration and quality using Nanodrop (Implen NANOPHOTOMETER®) before storage at −20° C.
(§3) Total DNA were submitted to Eurofins (GATC, Germany) to perform 16S rRNA sequencing using their INVIEW microbiome high specificity package. Briefly, total DNA were first amplified the hyper-variable regions 16S and integrated the barcodes through PCR. The PCR products were purified, then ligated with adapter for library preparation. The sequencing was done using PacBio sequencing technology, guaranteed for 25000 reads, mean read length […].
(§4) Amplicon analysis was performed using Mothur pipeline (mothur.org). Processing of the raw sequencing data was done according to the Mothur standard operating procedure (mothur.org/wiki/MiSeq_SOP). Alignment was accomplished using DAIRYdb 16S rRNA gene database (GitHub—marcomeola/DAIRYdb). Sequences were classified and any sequences classified as Chloroplast, Mitochondria, unknown, Archaea, or Eukaryota were removed from the data set. Preclustering of the sequences and removal of chimeric sequences using a Mothur-formatted version of the Ribosomal Database Project (RDP) training set and uchime, based on the Mothur protocol. Sequences were classified into Operational Taxonomic Units (OTUs) of ≥97% sequence identity. Singleton and doubleton reads were removed.
(§5) Data statistics of 16S data and figure plotting were performed in RStudio (rstudio.com/). Microbiome data was normalized in relative abundance or cpm (counts per million). The treatment effect of 2′FL in the microbiome abundance data was evaluated on normalized relative abundance (in %) using Mann-Whitney U test.

[3] = tested on: Faecalibacterium prausnitzii; assay: Fecal samples of piglets, 16S rRNA sequencing; assay type: in vivo
Protocol: as §2, §3, §4, §5

Lactobacillus mucosae = assay: Fecal samples of piglets, 16S rRNA sequencing; assay type: in vivo
Protocol: as §2, §3, §4, §5

Prevotella Sp. RS2 = assay: Fecal samples of piglets, 16S rRNA sequencing; assay type: in vivo
Protocol: as §2, §3, §4, §5

[4] = Feed conversion ratio of a farm animal (general statement); assay type: in vivo; conditions: administered to a farm animal

Question: Which Live weight ([1]; W 0 (arrival), mean ± SD) does the source give for 2′-fucosyllactose [2′FL] here?
Answer: Its Live weight is 45.6 ± 2.8 kg.

Question: What about the “Feed conversion ratio (FCR)” value ([1]; W 0-W 2) of the same substance?
Answer: Its value is 1.34.

Question: And the Average daily gain ([1]; W 0-W 2, mean ± SD)?
Answer: Its Average daily gain is 600.1 ± 155.0 g/day.

Question: What about the “Feed conversion ratio (FCR)” value ([1]; W 0-W 6) of the same substance?
Answer: The value was 1.53.

Question: What about the “Feed conversion ratio (FCR)” value ([1]; W 0-W 10) of the same substance?
Answer: Its value is 2.01.

Question: What about the “Feed conversion ratio (FCR)” value ([1]; W 0-W 12) of the same substance?
Answer: Its value is 2.28.

Question: What about the Average daily gain ([1]; W 0-W 12, mean ± SD) of the same substance?
Answer: Its Average daily gain is 1099.5 ± 141.7 g/day.

Question: And the Live weight ([1]; W 2, mean ± SD)?
Answer: The Live weight was 54.0 ± 3.3 kg.

Question: And the “Feed conversion ratio (FCR)” value ([1]; W 2-W 6)?
Answer: Its value is 1.67.

Question: And the Average daily gain ([1]; W 2-W 6, mean ± SD)?
Answer: Its Average daily gain is 954.9 ± 176.8 g/day.

Question: And the Live weight ([1]; W 6, mean ± SD)?
Answer: Its Live weight is 80.7 ± 7.1 kg.

Question: What about the “Feed conversion ratio (FCR)” value ([1]; W 6-W 10) of the same substance?
Answer: Its value is 2.51.

Question: And the Average daily gain ([1]; W 6-W 10, mean ± SD)?
Answer: Its Average daily gain is 1267.9 ± 202.2 g/day.

Question: What about the “Feed conversion ratio (FCR)” value ([1]; W 6-W 12) of the same substance?
Answer: The value was 2.76.

Question: And the Live weight ([1]; W 10, mean ± SD)?
Answer: The Live weight was 116.2 ± 11.0 kg.

Question: And the “Feed conversion ratio (FCR)” value ([1]; W 10-W 12)?
Answer: The value was 3.44.

Question: What about the Average daily gain ([1]; W 10-W 12, mean ± SD) of the same substance?
Answer: The Average daily gain was 1484.6 ± 260.7 g/day.

Question: What about the Live weight ([1]; W 12, mean ± SD) of the same substance?
Answer: Its Live weight is 136.8 ± 12.7 kg.

Question: And the “Average feed intake, CMR” value ([1]; calf milk replacer, 12 weeks trial)?
Answer: Its value is 42.3 kg.

Question: And the “Average feed intake, Concentrates” value ([1]; concentrates, 12 weeks trial, mean ± SD)?
Answer: Its value is 131.6 ± 6.2 kg.

Question: And the “Average feed intake, Corn silage” value ([1]; corn silage, mean ± SD)?
Answer: The value was 14.8 ± 1.3 kg.

Question: What about the “Average feed intake, Straw” value ([1]; straw, 12 weeks trial, mean ± SD) of the same substance?
Answer: Its value is 16.0 ± 0.8 kg.

Question: And the incidence of diarrhea [2]?
Answer: Its incidence of diarrhea is 0%.

Question: What about the effect on abundance (Blautia obeum; d 22) of the same substance?
Answer: Its effect on abundance is “promoted”.

Question: And the “Relative abundance in fecal samples” value (Blautia obeum; weaning day (d 22), P=0.0428 vs control)?
Answer: Its value is 0.1672%.

Question: What about the effect on abundance ([3]; d 22) of the same substance?
Answer: The effect on abundance was “promoted”.

Question: What about the “Relative abundance in fecal samples” value ([3]; weaning day (d 22), P=0.00965 vs control) of the same substance?
Answer: The value was 0.278%.

Question: And the effect on abundance (Lactobacillus mucosae; d 22)?
Answer: The effect on abundance was “promoted”.

Question: And the “Relative abundance in fecal samples” value (Lactobacillus mucosae; weaning day (d 22), P=0.0263 vs control)?
Answer: Its value is 0.1586%.

Question: And the effect on abundance (Prevotella Sp. RS2; d 22)?
Answer: The effect on abundance was “inhibited”.

Question: And the “Relative abundance in fecal samples” value (Prevotella Sp. RS2; weaning day (d 22), P=0.0129 vs control)?
Answer: Its value is 0.1093%.

Question: What about the “decrease of the feed conversion ratio” value [4] of the same substance?
Answer: The value was “strong decrease”.

From patent US20260294946A1, “METHOD TO REDUCE FEED CONVERSION RATIO IN A FARMED ANIMAL” (Inbiose N.V., priority 2023, published 2026)
